Columns and labels:
Plasmodium falciparum [1] = test: Antimalarial activity against Plasmodium falciparum isolates assessed as parasite growth inhibition after 72 hrs by ELISA based histidine-rich protein 2 in vitro drug susceptibility assay; format: functional, organism-based
Plasmodium falciparum [2] = test: Ratio of IC50 for Plasmodium falciparum isolates after 72 hrs to IC50 for Plasmodium falciparum isolates after 24 hrs by ELISA based histidine-rich protein 2 in vitro drug susceptibility assay; format: functional

| SMILES | IC50 (Plasmodium falciparum [1]) [nM] | IC90 (Plasmodium falciparum [1]) [nM] | IC99 (Plasmodium falciparum [1]) [µM] | Ratio IC50 (Plasmodium falciparum [2]) |
| --- | --- | --- | --- | --- |
| C[C@H]1[C@@H](O)O[C@@H]2O[C@@]3(C)CC[C@H]4[C@H](C)CC[C@@H]1[C@@]24OO3 [ARTENIMOL] | 0.77 | 2.76 | 0.004 | – |
| CC[C@H]1OC(=O)[C@H](C)[C@@H](O[C@H]2C[C@@](C)(OC)[C@@H](O)[C@H](C)O2)[C@H](C)[C@@H](O[C@@H]2O[C@H](C)C[C@H](N(C)C)[C@H]2O)[C@](C)(O)C[C@@H](C)CN(C)[C@H](C)[C@@H](O)[C@]1(C)O [AZITHROMYCIN] | 4310 | 18400 | 26.7 | – |
| CCN(CC)CCCC(C)Nc1ccnc2cc(Cl)ccc12 (configuration not stated) [CHLOROQUINE] | – | 303 | 0.436 | – |
| C[C@H]1c2cccc(O)c2C(=O)C2=C(O)[C@]3(O)C(=O)C(C(N)=O)=C(O)[C@@H](N(C)C)[C@@H]3[C@@H](O)[C@@H]21.O [DOXYCYCLINE] | 4280 | 19400 | 27.2 | 13 |
| OC(c1cc(C(F)(F)F)nc2c(C(F)(F)F)cccc12)C1CCCCN1 (configuration not stated) [MEFLOQUINE] | 14.4 | 64 | 0.106 | – |
| C=C[C@H]1CN2CC[C@H]1C[C@H]2[C@H](O)c1ccnc2ccc(OC)cc12 [QUININE] | 106 | 441 | 0.673 | – |
| CN(C)c1cc(NC(=O)CNC(C)(C)C)c(O)c2c1C[C@H]1C[C@H]3[C@H](N(C)C)C(O)=C(C(N)=O)C(=O)[C@@]3(O)C(O)=C1C2=O [TIGECYCLINE] | 699 | 5910 | 12.4 | 49 |

Reference: ChEMBL document CHEMBL1649214, “Antimalarial activity of tigecycline, a novel glycylcycline antibiotic” (Antimicrob Agents Chemother, 2009)
